The subject of experiment [1] is Mus musculus. Briefly: Antiinflammatory activity against PLA2-induced Swiss mouse paw edema at 5 mg/kg, ip administered 30 mins before PLA2 challenge. Type of experiment: functional. The settings on record: route intraperitoneal.
The subject of experiment [2] is Mus musculus. Briefly: Antiinflammatory activity against PLA2-induced Swiss mouse paw edema at 5 mg/kg, ip administered 60 mins before PLA2 challenge. It is filed as functional. The note with it: route intraperitoneal.
Experiment [3] deals with Mus musculus. Briefly: Antiinflammatory activity against TPA-induced Swiss mouse ear edema assessed as reduction in ear swelling at 0.25 mg/ear topically after 4 hrs relative to control. Type of experiment: functional.
Experiment [4] deals with T1, Polyunsaturated fatty acid 5-lipoxygenase (Rattus norvegicus) (UniProt P12527).
T1 sequence (whole entry): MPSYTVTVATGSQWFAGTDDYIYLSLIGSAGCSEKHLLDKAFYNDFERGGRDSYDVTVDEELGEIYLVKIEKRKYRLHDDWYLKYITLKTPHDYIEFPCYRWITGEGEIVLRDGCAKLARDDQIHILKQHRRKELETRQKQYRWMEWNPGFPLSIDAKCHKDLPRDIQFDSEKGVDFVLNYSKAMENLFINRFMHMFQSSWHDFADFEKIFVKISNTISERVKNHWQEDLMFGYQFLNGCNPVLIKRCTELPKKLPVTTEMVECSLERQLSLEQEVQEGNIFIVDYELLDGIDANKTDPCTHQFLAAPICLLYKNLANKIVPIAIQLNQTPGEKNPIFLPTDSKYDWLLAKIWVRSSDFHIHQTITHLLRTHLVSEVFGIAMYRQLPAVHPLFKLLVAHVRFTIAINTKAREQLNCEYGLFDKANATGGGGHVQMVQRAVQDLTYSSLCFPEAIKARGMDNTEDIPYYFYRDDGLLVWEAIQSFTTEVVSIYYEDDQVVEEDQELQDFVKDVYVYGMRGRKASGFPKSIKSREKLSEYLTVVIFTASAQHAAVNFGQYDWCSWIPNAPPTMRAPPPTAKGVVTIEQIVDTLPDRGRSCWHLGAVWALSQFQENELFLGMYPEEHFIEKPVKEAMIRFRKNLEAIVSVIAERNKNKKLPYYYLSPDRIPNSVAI
Briefly: Inhibition of 5-lipoxygenase in rat leukocytes assessed as inhibition of calcium ionophore A-23187/calcium-stimulated LTB4 production. It is filed as cell-based.

Experiment [5] concerns the target Prostaglandin G/H synthase 1 (Homo sapiens) (UniProt P23219). Briefly: Inhibition of cyclooxygenase 1 in human platelet assessed as 12-hydroxyheptadecatrienoic acid production.
Experiment [6] relates to Mus musculus. Briefly: Antiinflammatory activity against PLA2-induced Swiss mouse paw edema at 5 mg/kg, ip administered 30 mins before PLA2 challenge.
Experiment [7] has as its system Mus musculus. Briefly: Antiinflammatory activity against carrageenan-induced Swiss mouse paw edema at 10 mg/kg, po. It is filed as functional.
Experiment [8] relates to Mus musculus. Briefly: Antiinflammatory activity against TPA-induced Swiss mouse ear edema assessed as reduction in ear swelling at 0.5 mg/ear topically after 4 hrs relative to control. It is filed as functional.

The source made the active and inactive calls. The calls are words filed in the database; no cut-off is given here.

Prostaglandin G/H synthase 1 (Homo sapiens), sequence (P23219 whole entry): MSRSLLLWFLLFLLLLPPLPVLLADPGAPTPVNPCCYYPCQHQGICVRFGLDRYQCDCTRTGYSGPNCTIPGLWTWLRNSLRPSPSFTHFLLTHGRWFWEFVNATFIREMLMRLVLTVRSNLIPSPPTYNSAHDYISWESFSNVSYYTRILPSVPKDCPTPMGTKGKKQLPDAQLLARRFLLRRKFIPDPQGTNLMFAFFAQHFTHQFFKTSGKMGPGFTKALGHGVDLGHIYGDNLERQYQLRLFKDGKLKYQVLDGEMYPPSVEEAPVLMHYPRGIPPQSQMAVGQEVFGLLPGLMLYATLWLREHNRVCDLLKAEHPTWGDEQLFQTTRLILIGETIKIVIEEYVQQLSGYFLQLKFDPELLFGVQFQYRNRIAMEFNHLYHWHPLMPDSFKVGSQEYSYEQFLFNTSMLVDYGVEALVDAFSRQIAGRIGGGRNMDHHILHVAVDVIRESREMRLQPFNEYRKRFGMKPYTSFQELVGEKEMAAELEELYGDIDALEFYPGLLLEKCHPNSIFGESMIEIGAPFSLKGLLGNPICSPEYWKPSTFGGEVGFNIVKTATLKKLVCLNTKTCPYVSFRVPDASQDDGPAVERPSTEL

The inhibition in vivo is how much of the control response was suppressed. As to `COc1ccc(-c2coc3cc(OC/C=C(\C)CCC(O)C(C)(C)O)ccc3c2=O)cc1` (centres undefined) [GRIFFONIANONE D], the results for the inhibition in vivo at 5 mg/kg in the experiment on Mus musculus [1] and in the experiment on Mus musculus [2] were 42% and 30%, respectively. In the experiment on Mus musculus [3], the “inhibition (INH)” value came out at 77%. In addition, the result in experiment [4] and in experiment [5] was inactive.

Regarding `CN1CCC(=C2c3ccccc3C=Cc3ccccc32)CC1` [CYPROHEPTADINE], the inhibition in vivo at 5 mg/kg in the experiment on Mus musculus [1] and with Mus musculus [6] was 82% each time.

Consider `COc1ccc2c(c1)c(CC(=O)O)c(C)n2C(=O)c1ccc(Cl)cc1` [INDOMETHACIN], for which the inhibition in vivo at 10 mg/kg in the experiment on Mus musculus [7] is 60%. Further, the “inhibition (INH)” value in the experiment with Mus musculus [8] is on record as 82%.

Values taken from ChEMBL document CHEMBL1150696, “Griffonianone D, an isoflavone with anti-inflammatory activity from the root bark of Millettia griffoniana” (2003).
